In publication PMC7402526, “An in vitro quantitative systems pharmacology approach for deconvolving mechanisms of drug-induced, multilineage cytopenias” (PLoS Computational Biology, 2020):

Legend:
[1] = tested on: monocytes (monocyte-lin); experiment: MLTA, Mono: concentration-response and QSP model fit; format: cell-based, human; settings: Homo sapiens, Monocyte, 144 h
Protocol: (§1) A custom optimized cytokine cocktail was developed using commercially available cytokines (Peprotech, New Jersey) to facilitate simultaneous multi-lineage differentiation and self-renewal of freeze-thawed primary human bone marrow-derived CD34+ cells in SFEM II media (cells and media from StemCell Technologies, Vancouver). Cultures were carried out in ultra-low attachment 96-well plates (Corning, New York) with test article added on day 0 and cultured at 37°C, 85% relative humidity, and 5% CO2 for six days before interrogating drug impact via 17-parameter flow cytometry.
(§2) The flow cytometry panel used to define hematopoietic subsets was composed of CD34-PECy7, CD90-PECY5, CD38-AF488, CD371-PE, CD45Ra-BV421, CD14-BV605, CD42b-AF647, CD10-PEDazzle594, CD235a-PerCPCy5.5 (BioLegend, California), CD15-BUV395, CD41a-APCH7, CD71-BV786 (BD Biosciences, California), and DAPI for dead cell exclusion (ThermoFisher, California). In short, Day 6 cells were harvested, FcR-blocked (FcR binding inhibitor, ThermoFisher), surface-stained, then analyzed in a buffer containing TruCount Control Beads using a BD LSR Fortessa SORP fitted with a high-throughput sampler (BD Biosciences, California). Data was analyzed in Diva 6.0.2 and exported to CSV where after all cell data was transformed to cell per mL then normalized on a per-donor basis to untreated control wells to determine drug impact.
(§3) Donor material was collected and cultured as described above. The number of replicate donor samples per drug ranged from 2–7 and varied per drug (S1 Table). Drug treatment was added at time 0 and cells were maintained in culture for 6 days. Concentrations tested for each drug compound are contained in S1 Table. Concentrations were selected to span a range that is clinically useful. Following treatment, cell populations were measured using flow cytometry. We extracted cell counts from flow cytometry data, normalized to bead counts, and corrected for well volume.
(§4) Each well was normalized to the average of six vehicle control wells. For drugs that were tested across multiple runs of the assay, vehicle-normalized donor data were pooled, and we used the average of these pooled data for further modeling. Normalized data used as model inputs are included in S1 Table.
(§5) We implemented drug effects using an Emax model for the drug’s effect on each cell type. The 13 maximum effect parameters (EmaxT,C) are unitless and can vary between 0 and 2 and where a subscript, C, represents one of the previously described 13 cell types. We adapted a traditional Emax model using the equations below. We interpreted EmaxT values less than or equal to one as anti-proliferative, and EmaxT values greater than one as indicating a cell-killing mechanism in addition to anti-proliferation. The relationships for these effects are included in the model using the following equations. Eq 2 describes the drug anti-proliferative effect in the net proliferation rate for a given cell type. Eq 3 describes the cell-killing EmaxCK effect.
(§6) Towards the estimation of mechanistic parameters, we considered different formulations: (a) weighting the objective value to prioritize fitting dead cells and (b) using regularization methodology to encourage a parsimonious solution. We assessed the contributions of these formulations using mean-squared error and goodness of fit plots for drugs with known mechanisms. […] Further, we used L1 regularization to penalize parameters […] to help identify a parsimonious set of parameters to explain drug effects.

[2] = tested on: lymphocyte progenitors (LymP); experiment: MLTA, LymP: concentration-response and QSP model fit; format: cell-based, human; settings: Homo sapiens, Lymphocyte, 144 h
Protocol: as §1, §2, §3, §4, §5, §6

[3] = tested on: early erythroid cells (Eryth I); experiment: MLTA, ErythI: concentration-response and QSP model fit; format: cell-based, human; settings: Homo sapiens, 144 h
Protocol: as §1, §2, §3, §4, §5, §6

[4] = tested on: monocyte progenitors (monocyte prog); experiment: MLTA, MonoP: concentration-response and QSP model fit; format: cell-based, human; settings: Homo sapiens, Monocyte, 144 h
Protocol: as §1, §2, §3, §4, §5, §6

[5] = tested on: hematopoietic stem cells (HSCs); experiment: Multi-lineage toxicity assay (MLTA), HSCs: concentration-response and QSP model fit; format: cell-based, human; settings: Homo sapiens, Hematopoietic stem cell, 144 h
Protocol: as §1, §2, §3, §4, §5, §6

[6] = tested on: granulocyte progenitor (Gran-lin prog); experiment: MLTA, GranP: concentration-response and QSP model fit; format: cell-based, human; settings: Homo sapiens, 144 h
Protocol: as §1, §2, §3, §4, §5, §6

[7] = tested on: total viable cells (totalViableCells); experiment: MLTA, total live cells concentration-response; format: cell-based; settings: Homo sapiens, 144 h, 6 days, normalized to vehicle control, read-out: total_live normalized cell count
Protocol: as §1, §2, §3, §4

[8] = QSP model fit of 6-day MLTA data

## CS(=O)(=O)N1CCN(Cc2cc3nc(-c4cccc5[nH]ncc45)nc(N4CCOCC4)c3s2)CC1 [pictilisib]
[1]; [8]
  EC50: 1.02 µM
[1]; dose 0.2 nM, 6 days, normalized to vehicle control, read-out: Mon normalized cell count
  activity at 0.0002 µM: 92.5%
[1]; dose 1 nM, 6 days, normalized to vehicle control, read-out: Mon normalized cell count
  activity at 0.001 µM: 90.6%
[1]; dose 5 nM, 6 days, normalized to vehicle control, read-out: Mon normalized cell count
  activity at 0.005 µM: 79.5%
[1]; dose 25 nM, 6 days, normalized to vehicle control, read-out: Mon normalized cell count
  activity at 0.025 µM: 77.6%
[1]; dose 100 nM, 6 days, normalized to vehicle control, read-out: Mon normalized cell count
  activity at 0.1 µM: 61.1%
[1]; dose 500 nM, 6 days, normalized to vehicle control, read-out: Mon normalized cell count
  activity at 0.5 µM: 30.9%
[1]; dose 2500 nM, 6 days, normalized to vehicle control, read-out: Mon normalized cell count
  activity at 2.5 µM: 12.5%
[1]; parameter from QSP model fitting, read-out: Emax_drug_Mono
  Emax: 3.93%
[2]; dose 0.2 nM, 6 days, normalized to vehicle control, read-out: LymP normalized cell count
  activity at 0.0002 µM: 93.3%
[2]; dose 1 nM, 6 days, normalized to vehicle control, read-out: LymP normalized cell count
  activity at 0.001 µM: 105%
[2]; dose 5 nM, 6 days, normalized to vehicle control, read-out: LymP normalized cell count
  activity at 0.005 µM: 86.9%
[2]; dose 25 nM, 6 days, normalized to vehicle control, read-out: LymP normalized cell count
  activity at 0.025 µM: 77.7%
[2]; dose 100 nM, 6 days, normalized to vehicle control, read-out: LymP normalized cell count
  activity at 0.1 µM: 49.6%
[2]; dose 500 nM, 6 days, normalized to vehicle control, read-out: LymP normalized cell count
  activity at 0.5 µM: 46.4%
[2]; dose 2500 nM, 6 days, normalized to vehicle control, read-out: LymP normalized cell count
  activity at 2.5 µM: 19.2%
[2]; parameter from QSP model fitting, read-out: Emax_drug_LymP
  Emax: 0.032%
[3]; dose 0.2 nM, 6 days, normalized to vehicle control, read-out: ErythI normalized cell count
  activity at 0.0002 µM: 110%
[3]; dose 1 nM, 6 days, normalized to vehicle control, read-out: ErythI normalized cell count
  activity at 0.001 µM: 107%
[3]; dose 5 nM, 6 days, normalized to vehicle control, read-out: ErythI normalized cell count
  activity at 0.005 µM: 107%
[3]; dose 25 nM, 6 days, normalized to vehicle control, read-out: ErythI normalized cell count
  activity at 0.025 µM: 100%
[3]; dose 100 nM, 6 days, normalized to vehicle control, read-out: ErythI normalized cell count
  activity at 0.1 µM: 92.8%
[3]; dose 500 nM, 6 days, normalized to vehicle control, read-out: ErythI normalized cell count
  activity at 0.5 µM: 65.5%
[3]; dose 2500 nM, 6 days, normalized to vehicle control, read-out: ErythI normalized cell count
  activity at 2.5 µM: 27.5%
[3]; parameter from QSP model fitting, read-out: Emax_drug_ErythroidI
  Emax: 0.03%
[4]; QSP model fit of 6-day MLTA data, read-out: EC50MonoP
  EC50: 0.117 µM
[4]; dose 0.2 nM, 6 days, normalized to vehicle control, read-out: MonoPs normalized cell count
  activity at 0.0002 µM: 105%
[4]; dose 1 nM, 6 days, normalized to vehicle control, read-out: MonoPs normalized cell count
  activity at 0.001 µM: 94.3%
[4]; dose 5 nM, 6 days, normalized to vehicle control, read-out: MonoPs normalized cell count
  activity at 0.005 µM: 87.2%
[4]; dose 25 nM, 6 days, normalized to vehicle control, read-out: MonoPs normalized cell count
  activity at 0.025 µM: 74.8%
[4]; dose 100 nM, 6 days, normalized to vehicle control, read-out: MonoPs normalized cell count
  activity at 0.1 µM: 49%
[4]; dose 500 nM, 6 days, normalized to vehicle control, read-out: MonoPs normalized cell count
  activity at 0.5 µM: 30.2%
[4]; dose 2500 nM, 6 days, normalized to vehicle control, read-out: MonoPs normalized cell count
  activity at 2.5 µM: 11.3%
[4]; parameter from QSP model fitting, read-out: Emax_drug_MonoP
  Emax: 140%
[5]; [8]
  EC50: 0.289 µM
[5]; dose 0.2 nM, 6 days, normalized to vehicle control, read-out: HSCs normalized cell count
  activity at 0.0002 µM: 89.1%
[5]; dose 1 nM, 6 days, normalized to vehicle control, read-out: HSCs normalized cell count
  activity at 0.001 µM: 102%
[5]; dose 5 nM, 6 days, normalized to vehicle control, read-out: HSCs normalized cell count
  activity at 0.005 µM: 88.5%
[5]; dose 25 nM, 6 days, normalized to vehicle control, read-out: HSCs normalized cell count
  activity at 0.025 µM: 99.2%
[5]; dose 100 nM, 6 days, normalized to vehicle control, read-out: HSCs normalized cell count
  activity at 0.1 µM: 58.1%
[5]; dose 500 nM, 6 days, normalized to vehicle control, read-out: HSCs normalized cell count
  activity at 0.5 µM: 28.1%
[5]; dose 2500 nM, 6 days, normalized to vehicle control, read-out: HSCs normalized cell count
  activity at 2.5 µM: 8.09%
[5]; parameter from QSP model fitting, read-out: Emax_drug_HSC
  Emax: 48.6%
[6]; QSP model fit of 6-day MLTA data, read-out: EC50GranP
  EC50: 0.093 µM
[6]; dose 0.2 nM, 6 days, normalized to vehicle control, read-out: GranPs normalized cell count
  activity at 0.0002 µM: 95.5%
[6]; dose 1 nM, 6 days, normalized to vehicle control, read-out: GranPs normalized cell count
  activity at 0.001 µM: 100%
[6]; dose 5 nM, 6 days, normalized to vehicle control, read-out: GranPs normalized cell count
  activity at 0.005 µM: 101%
[6]; dose 25 nM, 6 days, normalized to vehicle control, read-out: GranPs normalized cell count
  activity at 0.025 µM: 84%
[6]; dose 100 nM, 6 days, normalized to vehicle control, read-out: GranPs normalized cell count
  activity at 0.1 µM: 70.2%
[6]; dose 500 nM, 6 days, normalized to vehicle control, read-out: GranPs normalized cell count
  activity at 0.5 µM: 60.8%
[6]; dose 2500 nM, 6 days, normalized to vehicle control, read-out: GranPs normalized cell count
  activity at 2.5 µM: 28.4%
[6]; parameter from QSP model fitting, read-out: Emax_drug_GranP
  Emax: 60.5%
[7]; dose 0.2 nM
  viability at 0.0002 µM: 97.8%
[7]; dose 1 nM
  viability at 0.001 µM: 96.4%
[7]; dose 5 nM
  viability at 0.005 µM: 91.2%
[7]; dose 25 nM
  viability at 0.025 µM: 84%
[7]; dose 100 nM
  viability at 0.1 µM: 60.1%
[7]; dose 500 nM
  viability at 0.5 µM: 33.9%
[7]; dose 2500 nM
  viability at 2.5 µM: 12.9%
